Measurements taken from patent US8389526B2, “3-heteroarylmethyl-imidazo[1,2-b]pyridazin-6-yl derivatives” (Novartis AG, priority 2009, dated 2013).

Key:
[1] = biological target: T1, c-Met (Homo sapiens, UniProt P08581); experiment: GTL-16 c-Met autophosphorylation measured by AlphaScreen detection; assay type: cell-based; settings: GTL-16 cells, 1 h incubation, AlphaScreen p-c-Met; read-out: GTL-16 IC50 c-Met phosphorylation
T1 construct: adapted to measure the phosphorylation of endogenous cellular proteins in cell lysates; endogenous in cells; host or cells: GTL-16
T1 sequence (P08581 25-1390): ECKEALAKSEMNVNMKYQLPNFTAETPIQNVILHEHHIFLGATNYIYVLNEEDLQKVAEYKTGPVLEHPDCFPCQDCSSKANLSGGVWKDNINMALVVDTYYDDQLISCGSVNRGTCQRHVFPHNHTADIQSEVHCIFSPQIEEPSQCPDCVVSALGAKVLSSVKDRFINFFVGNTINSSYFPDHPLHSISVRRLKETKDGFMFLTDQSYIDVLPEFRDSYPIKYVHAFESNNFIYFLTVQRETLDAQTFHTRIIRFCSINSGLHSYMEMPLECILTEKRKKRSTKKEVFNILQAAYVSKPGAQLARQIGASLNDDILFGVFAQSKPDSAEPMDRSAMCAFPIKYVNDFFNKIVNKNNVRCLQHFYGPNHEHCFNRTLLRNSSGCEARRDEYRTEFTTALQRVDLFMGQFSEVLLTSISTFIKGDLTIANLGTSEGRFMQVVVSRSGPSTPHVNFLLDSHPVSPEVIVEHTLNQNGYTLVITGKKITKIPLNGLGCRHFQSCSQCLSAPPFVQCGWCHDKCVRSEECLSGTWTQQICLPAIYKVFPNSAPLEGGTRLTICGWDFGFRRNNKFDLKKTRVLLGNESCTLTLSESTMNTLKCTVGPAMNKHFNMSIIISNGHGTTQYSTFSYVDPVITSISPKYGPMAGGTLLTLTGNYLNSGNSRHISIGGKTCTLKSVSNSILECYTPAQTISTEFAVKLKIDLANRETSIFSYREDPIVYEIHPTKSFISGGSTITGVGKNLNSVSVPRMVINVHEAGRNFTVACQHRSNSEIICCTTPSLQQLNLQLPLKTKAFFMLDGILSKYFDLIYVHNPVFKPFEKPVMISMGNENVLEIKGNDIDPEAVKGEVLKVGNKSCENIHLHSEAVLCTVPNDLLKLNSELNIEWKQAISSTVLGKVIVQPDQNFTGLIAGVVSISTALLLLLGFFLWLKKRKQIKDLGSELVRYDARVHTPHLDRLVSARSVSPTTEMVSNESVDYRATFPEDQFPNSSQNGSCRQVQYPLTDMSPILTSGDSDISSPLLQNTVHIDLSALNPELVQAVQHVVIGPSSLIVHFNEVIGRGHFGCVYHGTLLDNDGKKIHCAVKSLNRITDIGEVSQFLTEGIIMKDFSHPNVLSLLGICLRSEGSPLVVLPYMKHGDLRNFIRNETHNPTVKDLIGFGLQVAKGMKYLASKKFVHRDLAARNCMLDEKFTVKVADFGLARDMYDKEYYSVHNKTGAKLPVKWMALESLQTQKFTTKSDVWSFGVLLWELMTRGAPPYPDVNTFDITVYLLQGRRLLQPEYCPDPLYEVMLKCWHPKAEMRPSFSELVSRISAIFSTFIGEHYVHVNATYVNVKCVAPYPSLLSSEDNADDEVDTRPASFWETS
Method: (§1) C-Met Dependent Cellular Assays
(§2) A number of compounds of the present invention were assayed in a c-Met dependent proliferation and phosphorylation assay as follows.
GTL-16 c-Met autophosphorylation measured by AlphaScreen® detection: the human MET-amplified gastric cancer cells GTL-16 were plated in 384-well plates at a density of 10′000 cells in 20 ul complete growth medium (DMEM high glucose supplemented with 10% (v/v) heat inactivated fetal calf serum and of 1 mM sodium pyruvate) and were incubated at […]/5% CO2/95% humidity for 20 h. The cells were washed and the 30 ul assay buffer (DMEM high glucose, 1 mM sodium pyruvate, 0.1% bovine serum albumine) was added. Compounds were diluted in 384-well compound plates to obtain 8-point serial dilutions for 40 test compounds in 90% DMSO, as well as a reference compound plus 16 high- and 16 low (inhibited) controls. These compound plates were prediluted 1:200 in assay buffer into a compound predilution plate and 10 ul of prediluted compound solution were transferred to the cell plate using a 384-well pipettor, resulting in a final DMSO concentration of 0.11%. Cells were incubated for 1 h at […]/5% CO2/95% humidity. The supernatant was removed, the cells were lysed in 25 ul of RIPA [radio immuno precipitation assay] lysis buffer supplemented with 2 mM sodium vanadate and a protease inhibitor cocktail, and cell plates were stored at −80° C.
For detection of p-c-Met, an AlphaScreen®-based assay was used. AlphaScreen® (Amplified Luminescent Proximity Homogeneous Assay, ALPHA, Perkin Elmer, U.S.A) is a non-radioactive bead-based proximity assay technology to study biomolecular interactions in a homogenous microtiter plate format. This technique has been adapted to measure the phosphorylation of endogenous cellular proteins in cell lysates by the use of specific antibody pairs against the total protein and a phospho-specific epitope. 5 ul of cell lysate was transferred to 384-well low volume Proxiplates for detection using a 384-well pipettor. First, 5 ul of a premix of an anti-c-Met antibody (0.25 ug/ml f.c.), a biotinylated PY20 antibody (phosphotyrosine antibody, 0.05 ug/ml f.c.) and AlphaScreen® Protein A-coupled acceptor beads (10 ug/ml f.c.) in RIPA buffer supplemented with 0.25% (v/w) TOP BLOCK, 2 mM sodium vanadate, and a protease inhibitor cocktail and was added, the plate was sealed, and incubated on a plate shaker for 2 hours at room temperature. Second, 2 ul of dilution buffer containing AlphaScreen® Streptavidin-coated donor beads (10 ug/ml f.c.) in RIPA buffer was added, and the plate was incubated on plate shaker as above for a further 2 hours. The plate was read on an AlphaScreen® compatible plate reader, using standard AlphaScreen® settings.

[2] = biological target: T2, c-Met receptor tyrosine kinase, GST-c-Met(969-1390) (Homo sapiens, UniProt P08581); experiment: EPK c-Met profiling assay (LanthaScreen TR-FRET kinase assay); assay type: biochemical; settings: 2 μM ATP, 0.3 nM enzyme, 60 minutes at room temperature
T2 construct: made in house
T2 sequence (P08581 969-1390): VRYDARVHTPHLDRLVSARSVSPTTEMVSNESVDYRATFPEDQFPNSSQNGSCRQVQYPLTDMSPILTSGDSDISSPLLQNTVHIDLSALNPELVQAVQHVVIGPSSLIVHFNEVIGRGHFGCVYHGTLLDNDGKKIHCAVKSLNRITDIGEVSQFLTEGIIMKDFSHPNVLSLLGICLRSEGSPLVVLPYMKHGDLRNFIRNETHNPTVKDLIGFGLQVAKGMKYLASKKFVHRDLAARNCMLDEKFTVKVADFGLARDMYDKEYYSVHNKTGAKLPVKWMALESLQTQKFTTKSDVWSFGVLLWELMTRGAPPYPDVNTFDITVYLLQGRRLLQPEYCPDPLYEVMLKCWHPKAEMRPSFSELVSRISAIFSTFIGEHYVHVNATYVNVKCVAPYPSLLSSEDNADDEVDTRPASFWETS
Method: A number of compounds of the present invention were assayed in an antibody based kinase phosphorylation assay as follows.
Epk c-Met Profiling Assay:
The EPK kinase assay for c-Met receptor tyrosine kinase was developed, using the purified recombinant GST-fusion protein, containing the cytoplasmic domain of the enzyme. GST-c-Met(969-1390) was purified by affinity chromatography.
The kinase assay is based on the LanthaScreen™ technology. LanthaScreen™ is the detection of Time-Resolved Fluorescence Resonance Energy Transfer (TR-FRET) using lanthanide chelates to measure interactions between various binding partners. In a TR-FRET kinase assay, a long-lifetime lanthanide donor species is conjugated to an antibody that specifically binds to a phosphorylated product of a kinase reaction that is labeled with a suitable acceptor fluorophore. This antibody-mediated interaction brings the lanthanide donor and the acceptor into proximity such that resonance energy transfer can take place, resulting in a detectible increase in the FRET signal.
The kinase reactions were performed in 384 well microtiter plates in a total reaction volume of 9.05 μL. The assay plates were prepared with 0.05 μL per well of test compound in the appropriate test concentration, as described under “preparation of compound dilutions”. The reactions were started by combining 4.5 μL of ATP solution with 4.5 μL of enzyme-substrate mix (consisting of kinase and substrate). The final concentrations in the kinase reactions were 35 mM Tris/HCl, 1 mM DTT, 0.025% Tween20, 10 μM sodium orthovanadate, 0.25% BSA, 0.6% DMSO, 10 mM MgCl2, 3 mM MnCl2, 2 μM ATP, 50 nM Fluorescein-PolyEAY, and 0.3 nM enzyme.
The reactions were incubated for 60 minutes at room temperature and stopped by adding 4.5 μL of stop buffer (50 mM EDTA, 0.04% NP40, 20 mM Tris/HCl).
Subsequently 4.5 μL of detection mix (50 mM Tris/HCl, 2 mM DTT, 0.05% Tween20, 20 μM sodium orthovanadate, 1% BSA, 1.72 μg/mL Tb-PY20 antibody) were added to the stopped reactions. After 30 minutes incubation at room temperature, the plates were measured in a BMG Pherastar fluorescence reader. The effect of compound on the enzymatic activity was in all assays obtained from the linear progress curves and determined from one reading (end point measurement).
Preparation of Compound Dilutions
Test compounds were dissolved in DMSO (10 mM) and transferred into 1.4 mL flat bottom or V-shaped Matrix tubes carrying a unique 2D matrix. The stock solutions were stored at −20° C. if not used immediately. For the test procedure the vials were defrosted and identified by a scanner whereby a working sheet was generated that guided the subsequent working steps.
Compound dilutions were made in 96 well plates. This format enabled the assay of maximally 40 individual test compounds at 8 concentrations (single points) including 4 reference compounds. The dilution protocol included the production of “pre-dilution plates”, “master plates” and “assay plates”.
Pre-dilution plates: 96 polypropylene well plates were used as pre-dilution plates. A total of 4 pre-dilution plates were prepared including 10 test compounds each on the plate positions A1-A10, one standard compound at A11 and one DMSO control at A12. All dilution steps were done on a HamiltonSTAR robot.
Master plates: 100 μL of individual compound dilutions including standard compound and controls of the 4 “pre-dilution plates” were transferred into a 384 “master plate” including the following concentrations 1′820, 564, 182, 54.6, 18.2, 5.46, 1.82 and 0.546 μM, respectively in 90% of DMSO.
Assay plates: Identical “assay plates” were then prepared by pipetting 50 nL each of compound dilutions of the “master plates” into 384-well “assay plates” by means of a HummingBird 384-channel dispenser. These plates were used directly for the assay which was performed in a total volume of 9.05 μL. […]

[3] = test system: MET-amplified gastric cancer cell line GTL-16; experiment: GTL-16 proliferation assay (MTS); assay type: cell-based; settings: Homo sapiens, GTL-16 cells, 72 h incubation
Method: as §1, §2
GTL-16 proliferation assay: the MET-amplified gastric cancer cell line GTL-16 was grown under standard cell culture conditions in DMEM [Dulbecco's Modified Eagle Medium] (high glucose) supplemented with 10% heat-inactivated fetal calf serum and 2 mM L-glutamine. For proliferation assays, cells were seeded at 3000 per well in 96-well-plates. 24 h later, a 10-point dilution series of each compound (3-fold steps, ranging from […]) was prepared in DMSO. Compound were then diluted 1000-fold in growth media in two steps and added to cells in triplicates, resulting in a final volume of […] per well and maximal final compound concentrations of […]. A DMSO-only control was included. Cells were incubated for 72 h and the amount of viable cells was then measured by adding […] of MTS reagent (CellTiter 96® AQueous Non-Radioactive Cell Proliferation Assay, Promega), further incubation for 30′, and reading the optical density at 490 nm.

| SMILES | IC50 [1] [µM] | IC50 [2] [µM] | IC50 [3] [µM] |
| --- | --- | --- | --- |
| CC(c1c(F)cc2ncccc2c1F)c1cnc2ccc(N3CCN(C(=O)C(F)(F)F)CC3)nn12 (racemic) [Example 17, (rac)-1-(4-{3-[1-(5,7-Difluoro-quinolin-6-yl)-ethyl]-imidazo[1,2-b]pyridazin-6-yl}-piperazin-1-yl)-2,2,2-trifluoro-ethanone] | 0.014 | 0.024 | 0.02 |
| CC(c1c(F)cc2ncccc2c1F)c1cnc2ccc(N3CCN(C4CCCC4)C(=O)C3)nn12 (racemic) [Example 20, (rac)-4-{3-[1-(5,7-Difluoro-quinolin-6-yl)-ethyl]-imidazo[1,2-b]pyridazin-6-yl}-1-cyclopentylpiperazin-2-one] | 0.007 | 0.027 | 0.021 |
| CC(c1c(F)cc2ncccc2c1F)c1cnc2ccc(N3CCN(C)C(=O)C3C)nn12 (racemic) [Example 21, (rac)-4-{3-[1-(5,7-Difluoro-quinolin-6-yl)-ethyl]-imidazo[1,2-b]pyridazin-6-yl}-1,3-dimethylpiperazin-2-one] | < 0.003 | 0.019 | 0.009 |
| CC(c1c(F)cc2ncccc2c1F)c1cnc2ccc(N3CCN(c4ccccc4)C(=O)C3)nn12 (racemic) [Example 22, (rac)-4-{3-[1-(5,7-Difluoro-quinolin-6-yl)-ethyl]-imidazo[1,2-b]pyridazin-6-yl}-1-phenylpiperazin-2-one] | 0.006 | 0.014 | 0.015 |
| CC(c1c(F)cc2ncccc2c1F)c1cnc2ccc(N3CC(=O)NCC3C)nn12 (racemic) [Example 23, (rac)-4-{3-[1-(5,7-Difluoro-quinolin-6-yl)-ethyl]-imidazo[1,2-b]pyridazin-6-yl}-5-methylpiperazin-2-one] | 0.0033 | 0.015 | 0.0085 |
| CC1CN(c2ccc3ncc(C(C)c4c(F)cc5ncccc5c4F)n3n2)CC(=O)N1 (racemic) [Example 24, (rac)-4-{3-[1-(5,7-Difluoro-quinolin-6-yl)-ethyl]-imidazo[1,2-b]pyridazin-6-yl}-6-methylpiperazin-2-one] | 0.004 | 0.004 | 0.0098 |
| CC(c1c(F)cc2ncccc2c1F)c1cnc2ccc(N3CCN(c4ccccn4)C(=O)C3)nn12 (racemic) [Example 25, (rac)-4-{3-[1-(5,7-Difluoro-quinolin-6-yl)-ethyl]-imidazo[1,2-b]pyridazin-6-yl}-1-(pyridin-2-yl)piperazin-2-one] | 0.008 | 0.015 | 0.013 |
| CC(c1cc2cnn(C)c2cc1F)c1cnc2ccc(N3CCNC(=O)C3)nn12 (racemic) [Example 27, (rac)-4-{3-[1-(6-Fluoro-1-methyl-1H-indazol-5-yl)-ethyl]-imidazo[1,2-b]pyridazin-6-yl}-piperazin-2-one] | 0.003 | 0.073 | 0.173 |
| CC(c1cc2cccnc2cc1F)c1cnc2ccc(N3CCN(C)C(=O)C3)nn12 (racemic) [Example 40, (rac)-4-{3-[1-(7-Fluoro-quinolin-6-yl)-ethyl]-imidazo[1,2-b]pyridazin-6-yl}-1-methyl-piperazin-2-one] | 0.011 | 0.039 | 0.147 |
| CC(c1cc2cccnc2cc1F)c1cnc2ccc(N3CCNC(=O)C3)nn12 (racemic) [Example 41, (rac)-4-{3-[1-(7-Fluoro-quinolin-6-yl)-ethyl]-imidazo[1,2-b]pyridazin-6-yl}-piperazin-2-one] | < 0.003 | 0.023 | 0.049 |
| CC(=O)N1CCN(c2ccc3ncc(C(C)c4cc5cccnc5cc4F)n3n2)CC1 (racemic) [Example 42, (rac)-1-(4-{3-[1-(7-Fluoro-quinolin-6-yl)-ethyl]-imidazo[1,2-b]pyridazin-6-yl}-piperazin-1-yl)ethanone] | 0.039 | 0.049 | 0.193 |
| CC(c1ccc2ncccc2c1F)c1cnc2ccc(N3CCN(C)C(=O)C3)nn12 (racemic) [Example 46, (rac)-4-{3-[1-(5-Fluoro-quinolin-6-yl)-ethyl]-imidazo[1,2-b]pyridazin-6-yl}-1-methyl-piperazin-2-one] | 0.015 | 0.03 | 0.047 |
| CC(c1ccc2ncccc2c1F)c1cnc2ccc(N3CCNC(=O)C3)nn12 (racemic) [Example 47, (rac)-4-{3-[1-(5-Fluoro-quinolin-6-yl)-ethyl]-imidazo[1,2-b]pyridazin-6-yl}-piperazin-2-one] | 0.0055 | 0.015 | 0.019 |
| CC(=O)N1CCN(c2ccc3ncc(C(C)c4ccc5ncccc5c4F)n3n2)CC1 (racemic) [Example 48, (rac)-1-(4-{3-[1-(5-Fluoro-quinolin-6-yl)-ethyl]-imidazo[1,2-b]pyridazin-6-yl}-piperazin-1-yl)ethanone] | 0.035 | 0.14 | 0.168 |
